Measured values reported in patent publication US8361802B2, “Fluorescent ozone sensor” (University of Pittsburgh—Of the Commonwealth System of …, priority 2009, dated 2013).

Assays:
[1] = Ozone detection in human serum; settings: human serum diluted in pH 7 buffer, ozone ~5 μM
Procedure: FIG. 2E illustrates Ozone detection in human serum, wherein Left Sample: 4, no ozone; Right Sample: 4, + ozone.
One embodiment of the present invention utilized sensor 4 to detect ozone in human serum. […] One possible explanation may be due to the small Stokes shift that is found in fluorescein and its derivatives, which makes these fluorophores more prone to influences of scattering and interference.
(§1) Ozone detection in human serum. Human serum (1.0 mL) was diluted in pH 7 buffer ([PO4^3−]=5 mM) (3.0 mL). Solution A (5.0 μL, [compound 4]final=12.5 μM) was added to the resulting human serum mixture, and the samples were exposed to ozone (˜5 μM) at 24° C. followed by 1 hour incubation at 37° C. before fluorescence measurement. The experiment was performed in triplicate with an illustration of one of the tests represented in FIG. 2E.

[2] = Ozone detection in nasal fluid; settings: ozone ~5 μM
Procedure: FIG. 2D illustrates Ozone detection in nasal fluid, wherein Left Sample: 4, no ozone; Right Sample: 4, + ozone.
One embodiment of the present invention is a biomedical probe to detect ozone. Since ozone is believed to be much too reactive to reach and permeate the epithelial cells, ozone detection in the presence of various antioxidants that are found in the epithelial lining fluid was attempted. […] Nasal fluid was tested to more accurately mimic the epithelial lining fluid of the lung.
as §1, with “pleural fluid.” for “serum.”, “pleural fluid” for “serum”, “2D.” for “2E.”

Relative quantum yields = format: physicochemical; settings: relative to fluorescein; phosphate buffer pH=7.0, excited at 490 nm
Procedure: Relative Quantum Yields. To determine quantum yields relative to fluorescein, a stock solution of compound 4 was prepared in DMSO (1 mM) and diluted in phosphate buffer (pH=7.0) to OD490=0.09. The samples were excited at 490 nm and the integrated emission spectra were compared. The quantum yields of all compounds were referenced to fluorescein in 0.1 N NaOH (Φ=0.95). The quantum yield for compound 4 was calculated as 0.00132

Structure (SMILES): C=CCCOc1cc2oc3cc(=O)c(Cl)cc-3c(-c3ccccc3CO)c2cc1Cl [compound 4]
- S/B [1]: 92
- S/B [2]: 92
- quantum yield (Relative quantum yields): 0.00132
